Assay results reported in patent publication US7449545B2, “Antimicrobial bolisin peptides” (IPF Pharmaceuticals GmbH, priority 2001, dated 2008).
Ends that are not written are not given here.

How the values were obtained:
Type in all cases: cell-based
[1] = tested on: Pseudomonas aeruginosa ATCC 9027; details: Mueller Hinton Broth; complete growth inhibition not achieved
Description: (§1) The bolisin analogues of the present invention were examined for their suitability as antibiotic therapeutical agents by means of various biological tests. Thus, the chemically synthesized peptides were examined for their antimicrobial effectiveness against three Gram-positive and three Gram-negative bacterial strains as well as against a yeast.
(§2) The following microorganisms were used: • Gram-positive: Staphylococcus aureus ATCC 25923 • Enterococcus faecalis ATCC 51299 (vancomycin-resistant) • Streptococcus pneumoniae DSM 11865 (penicillin-resistant) • Gram-negative: Escherichia coli ATCC 25922 • Pseudomonas aeruginosa ATCC 9027 • Klebsiella pneumoniae ATCC 10031 • Yeast: Candida albicans ATCC 10231
(§3) The antibiotic activity of bolisin analogues was examined by determining the minimum inhibition concentration. The minimum inhibition concentration of an analogue designates the lowest peptide concentration which is required to inhibit the growth of microorganisms completely after an incubation time of 18±2 h. This method allows to obtain a quantitative result about the antimicrobial potency of the peptides. These examinations were performed by analogy with the recommendations (M7-A3) edited by the NCCLS (National Committee for Clinical Laboratory Standards) by applying a dilution test in a liquid medium using chemically synthesized peptides (peptide sequences according to claims 1 to 3). Mueller Hinton Broth was used as the test medium according to the NCCLS recommendations unless indicated otherwise. […] The minimum inhibition concentrations are stated in [μg/ml].
(§4) A complete growth inhibition could not be achieved in this case. For determining the minimum inhibition concentration, the following microorganisms were used: • 1. Staphylococcus aureus ATCC 25923 • 2. Enterococcus faecalis ATCC 51299 (vancomycin-resistant) • 3. Streptococcus pneumoniae DSM 11865 (penicillin-resistant) • 4. Escherichia coli ATCC 25922 • 5. Pseudomonas aeruginosa ATCC 9027 • 6. Klebsiella pneumoniae ATCC 10031 • 7. Candida albicans ATCC 10231

[2] = tested on: Streptococcus pneumoniae DSM 11865 (penicillin-resistant); details: DSM 11865, 2 h
Description: as §1, §2
as §3, with “The minimum inhibition concentration of an analogue designates the lowest peptide concentration which is required to inhibit the growth of microorganisms completely after an incubation time of 18±2 h.” left out
as §4

[3] = tested on: Enterococcus faecalis ATCC 51299 (vancomycin-resistant); details: ATCC 51299, 2 h
Description: as §1, §2
as §3, with “The minimum inhibition concentration of an analogue designates the lowest peptide concentration which is required to inhibit the growth of microorganisms completely after an incubation time of 18±2 h.” left out
as §4

[4] = tested on: Staphylococcus aureus ATCC 25923; details: ATCC 25923, 2 h
Description: as §1, §2
as §3, with “The minimum inhibition concentration of an analogue designates the lowest peptide concentration which is required to inhibit the growth of microorganisms completely after an incubation time of 18±2 h.” left out
as §4

[5] = tested on: Escherichia coli ATCC 25922; details: ATCC 25922, 2 h
Description: as §1, §2
as §3, with “The minimum inhibition concentration of an analogue designates the lowest peptide concentration which is required to inhibit the growth of microorganisms completely after an incubation time of 18±2 h.” left out
as §4

[6] = tested on: Klebsiella pneumoniae ATCC 10031; details: ATCC 10031, 2 h
Description: as §1, §2
as §3, with “The minimum inhibition concentration of an analogue designates the lowest peptide concentration which is required to inhibit the growth of microorganisms completely after an incubation time of 18±2 h.” left out
as §4

[7] = tested on: Candida albicans ATCC 10231; details: for peptide concentration giving 75% inhibition of growth (value in parentheses): Mueller Hinton Broth, complete growth inhibition not achieved; for minimum inhibition concentration: ATCC 10231, 2 h
Description: as §1, §2
as §3, with “The minimum inhibition concentration of an analogue designates the lowest peptide concentration which is required to inhibit the growth of microorganisms completely after an incubation time of 18±2 h.” left out
as §4

[8] = tested on: Klebsiella pneumoniae ATCC 10031; details: Tryptic Soy Broth (3 g/l) with 150 mM sodium chloride; complete growth inhibition not achieved
Experimental: as §3, §4
(§5) Also for these examinations, the minimum inhibition concentration of the peptides against Gram-positive and Gram-negative microorganisms (microorganisms 1-6) was determined. Tryptic Soy Broth (3 g/l) with an addition of salt in physiological concentration (150 mM sodium chloride) was used as the test medium.
(§6) A complete growth inhibition could not be achieved in this case.

[9] = tested on: Pseudomonas aeruginosa ATCC 9027; details: ATCC 9027, 2 h
[10] = tested on: Enterococcus faecalis ATCC 51299 (vancomycin-resistant); details: Tryptic Soy Broth (3 g/l) with 150 mM sodium chloride; complete growth inhibition not achieved
Experimental: as §3, §4, §5, §6

[11] = tested on: Streptococcus pneumoniae DSM 11865 (penicillin-resistant); details: Tryptic Soy Broth (3 g/l) with 150 mM sodium chloride; complete growth inhibition not achieved
Experimental: as §3, §4, §5, §6

[12] = tested on: Staphylococcus aureus ATCC 25923; details: Tryptic Soy Broth (3 g/l) with 150 mM sodium chloride; complete growth inhibition not achieved
Experimental: as §3, §4, §5, §6

Substance | peptide concentration giving 75% inhibition of growth (value in parentheses) [1] | minimum inhibition concentration [2] [µg/mL] | minimum inhibition concentration [3] [µg/mL] | minimum inhibition concentration [4] [µg/mL] | minimum inhibition concentration [5] [µg/mL] | minimum inhibition concentration [6] [µg/mL] | peptide concentration giving 75% inhibition of growth (value in parentheses) [7] | peptide concentration giving 75% inhibition of growth (value in parentheses) [8] | minimum inhibition concentration [9] [µg/mL] | minimum inhibition concentration [7] [µg/mL] | peptide concentration giving 75% inhibition of growth (value in parentheses) [10] | peptide concentration giving 75% inhibition of growth (value in parentheses) [11] | peptide concentration giving 75% inhibition of growth (value in parentheses) [12]
YIVYKIRRARKRRKALK-OH [BOL-52, YIVYKIRRARKRRKALK] | (37.5) μg/ml | 200 | 200 | 300 | >300 | 75 | (37.5) μg/ml | (300) μg/ml | – | – | – | – | –
YIRYKIRSARKRRKALK-OH [BOL-17, YIRYKIRSARKRRKALK] | – | 300 | 200 | 37.5 | 37.5 | 9.375 | – | – | 200 | – | – | – | –
YIRYKRRSARKRRKALK-OH [BOL-18, YIRYKRRSARKRRKALK] | – | >300 | >300 | 18.75 | 18.75 | 37.5 | – | – | 300 | – | – | – | –
YIVYKIRSADKRSKALK-OH [Bolisin] | – | >300 | >300 | >300 | >300 | >300 | – | – | >300 | >300 | – | – | –
YIVYKIRSAWKRRKALK-OH [BOL-44, YIVYKIRSAWKRRKALK] | (75) μg/ml | 200 | >300 | 150 | 200 | 75 | – | – | – | 37.5 | (300) μg/ml | – | –
YIVYKIRWAWKRRKALK-OH [BOL-48, YIVYKIRWAWKRRKALK] | 6.5 µg/mL | 9.375 | 12.5 | 9.375 | 18.75 | 4.7 | – | – | 200 | 9.375 | – | – | –
KYIVYKIRSAWKRRKALK-OH [BOL-86, KYIVYKIRSAWKRRKALK] | (18.75) μg/ml | 150 | 200 | 75 | 150 | 50 | – | – | – | 18.75 | – | (300) μg/ml | (300) μg/ml
YIVYKIRSARKRWK-OH [BOL-71, YIVYKIRSARKRWK] | (200) μg/ml | 300 | 200 | 200 | 300 | 300 | – | – | – | 300 | (300) μg/ml | – | –
YIVYKIRWAWKRKKALK-OH [BOL-61, YIVYKIRWAWKRKKALK] | 75 µg/mL | 25 | 25 | 37.5 | 25 | 18.75 | – | – | 300 | 9.375 | – | – | –
YIVWKIRSARKRWKALK-OH [BOL-81, YIVWKIRSARKRWKALK] | (18.75) μg/ml | 75 | 150 | 300 | 300 | 25 | – | – | – | 75 | – | (75) μg/ml | (300) μg/ml
YIVYKIRRAWKRRKALK-OH [BOL-54, YIVYKIRRAWKRRKALK] | (25) μg/ml | 75 | 100 | 200 | 100 | 18.75 | – | (200) μg/ml | – | 18.75 | – | – | –
YIVRKIRSARKRRKALK-OH [BOL-83, YIVRKIRSARKRRKALK] | – | >300 | >300 | >300 | >300 | >300 | – | – | >300 | 300 | – | – | –
YIVYKIRSARKRWKAL [BOL-68, YIVYKIRSARKRWKAL] | (200) μg/ml | 300 | 200 | 200 | 200 | 300 | – | – | – | 200 | – | – | –
YIVYKIRWARKRWKALK-OH [BOL-51, YIVYKIRWARKRWKALK] | 25 µg/mL | 12.5 | 25 | 37.5 | 50 | 18.75 | (18.75) μg/ml | – | 300 | – | – | – | –
YIVYKIRSAWKRKKALK-OH [BOL-58, YIVYKIRSAWKRKKALK] | (100) μg/ml | 300 | >300 | >300 | >300 | 100 | (75) μg/ml | – | – | – | – | – | –
